Source: patent US8426606B2, “2′,2-bisthiazole non-nucleoside compounds, preparation methods, pharmaceutical compositions and uses as hepatitis virus inhibitors thereof” (Shanghai Institute of Materia Medica, Chinese Academy of …, priority 2010, dated 2013)
Where two headings read alike, the source gives them in different places.

Assays:
HBV = experiment: Anti-HBV activity assay: HBV-DNA replication in HepG2.2.15 cells, fluorescent quantitation PCR of culture supernatant; type: cell-based, Hepatitis B Virus; conditions: for IC50: HBV-DNA in supernatant on the eighth day, read-out: IC50 (concentration at which 50% of the replication of HBV was inhibited); for SI (bioactivity selective index): anti-HBV
Experimental: (§1) The anti-HBV activity assay of a specimen compound was performed in HepG2.2.15 cells stably transformed with the whole genome of HBV, including the determination of the cytotoxicity of the specimen compound (CC50) and the effect of the specimen compound on the replication level of HBV-DNA (IC50).
(§2) The Human hepatoma carcinoma cell HepG2.2.15 cell line stably transformed with the whole genome of HBV can stably secrete hepatitis B virosomes (containing DNA) in the supernatant of culture during culture. Both the antiviral activity and the cytotoxicity of the specimen drugs may be determined by detecting the amount of virus DNA secreted into the supernatant of culture by the cells under the intervention of an antiviral drug, in reference to the amount in control group that is the absence of the antiviral drug. A real-time fluorescent quantitation PCR assay was adopted to determine the concentration of a specimen drug at which 50% of the replication of HBV-DNA was inhibited (IC50), and a MTT assay was adopted to determine the concentration of a specimen drug at which 50% cytotoxicity occurs (CC50).
The specimen drug was prepared into a solution having a concentration (400 μM) desired for the experiment before use. Six diluted concentrations were tested for each specimen drug. The clinical anti-hepatitis B virus drug Lamivudine was used as the positive control in experiment so as to determine whether the reaction is normal or not in each experiment.
(§3) HepG2.2.15 cells were inoculated on a 96-well plate at 5×10^5 cells/ml. On the second day, the specimen drug was added. After the culture medium and the specimen drug having the same concentration as above were replaced periodically, on the eighth day, the supernatant of culture was collected to be tested. To the cells on the 96-well plate, MTT (5 mg/ml) is added. 4 hours later, MTT lysis solution was added (100 μl/well). The next day, OD570 was read on a microplate reader. The cytotoxicity of the specimen drug on HepG2.2.15 cells, the influence of specimen drug on cell growth, and the concentration of specimen drug at which 50% of cells were killed (CC50) were calculated in accordance with the OD value.
A proper amount of the supernatant of culture was added into an isovolumic virus extract and mixed uniformly. The resulted mixture was boiled, and then centrifuged for 5 minutes at 10,000 rpm at room temperature. A proper amount of the obtained supernatant was used to perform PCR amplification, and meanwhile four standard samples of HBV-DNA were set up to make a standard curve. The inhibition of each specimen drug at various concentrations against the replication of HBV-DNA was calculated according to the detected replication value of the viral DNA, and then the half inhibition of the specimen drug was calculated to obtain its IC50.

[1] = In vivo pharmacokinetic studies in rats (intragastric and intravenous); set-up: species or system SD rats; conditions: rat; for bioavailability: plasma, po, male SD rats, 20 mg/kg intragastric, dosage normalized, calculated according to AUC0-t
Experimental: (§4) Intragastric Administration Three healthy male SD rats having body weights of 200 g to 250 g were administered with a specimen drug with a dosage of 20 mg/kg and a volume of 10 ml/kg. The rats were fasted for 12 hours before administration and had the freedom to drink water. The venous blood with a volume of 0.3 ml was obtained from the retrobulbar venous plexus of the rats at 0.25 h, 0.5 h, 1.0 h, 2.0 h, 3.0 h, 4.0 h, 5.0 h, 7.0 h, 9.0 h and 24 h after the administration, put in a heparinized tube, and centrifuged for 10 minutes at 3500 rpm to separate the plasma, which was stored at −20° C. to be tested.
as §4, with “Intravenous Injection: Three healthy” for “Intragastric Administration Three healthy”, “dosage of 10 mg/kg and” for “dosage of 20 mg/kg and”, “volume of 5.0 ml/kg. The” for “volume of 10 ml/kg. The”, “rats at 5 min, 15 min, 0.5 h,” for “rats at 0.25 h, 0.5 h,”, “heparinized tube, centrifuged for” for “heparinized tube, and centrifuged for”

HCV (J399E) = experiment: microbe, parasite or virus in culture; type: cell-based, Hepatitis C Virus; conditions: for IC50: Hepatitis C virus, Huh-7.5.1, 72 h, read-out: IC50 (concentration at which 50% of the replication of HCV was inhibited); for SI (bioactivity selective index): anti-HCV, Huh7.5.1 cells
Experimental: The variation of the green fluorescence intensity was recorded on a microplate reader and cytotoxicity was measured at the same time, so as to evaluate the influence of the compound on the replication activity of HCV.
Compounds to be tested were dissolved in DMSO to prepare a stock solution before the test. Upon using, the stock solution was diluted to a desired concentration with DMEM (Dulbecco's Modified Eagle Media, purchased from GibcoBRL company (Life Technologies, Grand Island, N.Y., USA)) containing 10% FBS (fetal bovine serum, purchased from Hyclone company (Logan, Utah, USA)).
Positive control: ribavirin (purchased from Sigma/Aldrich). It was dissolved in DMSO to prepare a stock solution and stored at −20° C. before use, and diluted to a desired concentration upon using.
(§5) Huh7.5.1 cells (10% FBS, DMEM) at the concentration of 10^5 cells/ml were inoculated on a 96-well plate (Costar 3904) with 100 μl per well. 24 hours later, the supernatant of culture was sucked out, and 50 μl of virus supernatant with MOI=0.1 was added. 8 hours later, 50 μl of the testing drug was added and 100 μl of culture medium was supplemented. After incubation for 72 hours, the supernatant was sucked out, and read on a fluorescent microplate reader (Ex=488 nm, Em=516 nm). Then each well was added with 20 μl of MTT (5 mg/ml) and additional 50 μl of culture medium. 4 hours later, 100 μl of MTT lysis solution was added. 6 hours later, reading was performed at a wavelength of 570 nm.

in vitro = type: cell-based; conditions: human
Experimental: The anti-HCV activity assay was performed by using Huh7.5.1 cells (donated by WUHAN INSTITUTE of VIROLOGY, CHINESE ACADEMY OF SCIENCES) infected by HCV (J399E) inserted with enhanced green fluorescent protein (EGFP). The variation of the green fluorescence intensity was recorded on a microplate reader and cytotoxicity was measured at the same time, so as to evaluate the influence of the compound on the replication activity of HCV.
as §5

[2] = Cytotoxicity on HepG2.2.15 cells (MTT assay); type: cell-based, Human; conditions: human, read-out: CC50 (concentration at which 50% of cells was killed)
Experimental: as §1, §2, §3

HepG2.2.15 cells = experiment: Cytotoxicity on HepG2.2.15 cells (MTT assay); type: cell-based, Human; conditions: read-out: CC50 (concentration at which 50% of cells was killed)
Experimental: as §1, §2, §3

Row | SMILES | IC50 (HBV; Hepatitis B virus) | SI (bioactivity selective index) (HBV) | bioavailability [1] | IC50 (HCV (J399E)) | SI (bioactivity selective index) (HCV (J399E)) | CC50 at 72 h (in vitro) | CC50 at 6 days [2] | IC50 (HBV) | average oral bioavailability ([1]; in vivo, 10 mg/kg) | CC50 (HepG2.2.15 cells)
1 | CC(C)=Cc1sc(-c2nccs2)nc1C(=O)NCc1ccc(F)cc1 [Compound 373, N-(p-fluorobenzyl)-5-[1-(2-methylpropenyl)]-2′,2-bisthiazole-4-formamide] | 0.9 µM | >111.1 | 6.9% | 5.7 µM | 14.9 | 85 µM | > 100 µM |  |  | 
2 | C/C(=C\c1sc(-c2nccs2)nc1C(=O)NCc1ccc(F)cc1)CO [Compound 389, N-(p-fluorobenzyl)-5-[1-(3-hydroxy-2-methylpropenyl)]-2′,2-bisthiazole-4-formamide] | 30.2 µM | >3.3 |  | 6.6 µM | 11.6 | 76.5 µM | > 100 µM |  |  | 
3 | CC(C)C(O)c1sc(-c2nccs2)nc1C(=O)NCc1ccc(F)cc1 (centres unmarked) [Compound 391-1, N-(p-fluorobenzyl)-5-(1-hydroxy-2-methylpropyl)-2′,2-bisthiazole-4-formamide] | 1.63 µM | 20.9 |  | 10.2 µM | 4.8 | 48.6 µM | 34 µM |  |  | 
4 | CC(C)(O)Cc1sc(-c2nccs2)nc1C(=O)NCc1ccc(F)cc1 [Compound 391-2, N-(p-fluorobenzyl)-5-(2-hydroxy-2-methylpropyl)-2′,2-bisthiazole-4-formamide] | 5.4 µM | >18.5 | 76.5% | 21.3 µM | 6.3 | 134 µM | > 100 µM |  |  | 
5 | CC(CO)Cc1sc(-c2nccs2)nc1C(=O)NCc1ccc(F)cc1 (centres unmarked) [Compound 391-3, N-(p-fluorobenzyl)-5-(3-hydroxy-2-methylpropyl)-2′,2-bisthiazole-4-formamide] | < 0.41 µM | >243.9 |  | 9.9 µM | 2.8 | 28.1 µM | > 100 µM |  |  | 
6 | C/C(=C\c1sc(-c2nccs2)nc1C(=O)NCc1ccc(F)cc1)CF [Compound 391-F, N-(p-fluorobenzyl)-5-[1-(2-fluoromethylpropenyl)]-2′,2-bisthiazole-4-formamide] | 12.5 µM | >8 |  | 6.5 µM | 13.0 | 84.7 µM | > 100 µM |  |  | 
7 | CC(C)C(F)c1sc(-c2nccs2)nc1C(=O)NCc1ccc(F)cc1 (centres unmarked) [Compound 393-1, N-(p-fluorobenzyl)-5-(1-fluoro-2-methylpropyl)-2′,2-bisthiazole-4-formamide] | < 0.41 µM | >81 |  | 7.4 µM | 5.5 | 40.9 µM | > 33.3 µM |  |  | 
8 | CC(C)(F)Cc1sc(-c2nccs2)nc1C(=O)NCc1ccc(F)cc1 [Compound 393-2, N-(p-fluorobenzyl)-5-(2-fluoro-2-methylpropyl)-2′,2-bisthiazole-4-formamide] | 0.41 to 33.3 µM | <81 |  | 1.5 µM | >22.2 | > 33.3 µM | > 33.3 µM |  |  | 
9 | COC(c1sc(-c2nccs2)nc1C(=O)NCc1ccc(F)cc1)C(C)C (centres unmarked) [Compound 405-1, N-(p-fluorobenzyl)-5-(1-methoxy-2-methylpropyl)-2′,2-bisthiazole-4-formamide] | 2.6 µM | >12.8 |  | 3.7 µM | 5.8 | 21.4 µM | > 33.3 µM |  |  | 
10 | CC(C)Cc1sc(-c2nccs2)nc1C(=O)NCc1ccc(F)cc1 [Compound W28F, N-parafluorobenzyl-5-isobutyl-2′,2-bithiazole-4-formamide, reference compound] |  |  |  |  |  |  |  | 2.6 µM | 2.80% | > 33.3 µM
11 | Nc1ccn([C@@H]2CS[C@H](CO)O2)c(=O)n1 [Lamivudine, reference compound] | < 0.16 µM | >32 |  |  |  |  | > 5 µM |  |  | 
12 | CC(C)=Cc1sc(-c2ncc(C)s2)nc1C(=O)NCc1ccc(F)cc1 [Me-373, N-(p-fluorobenzyl)-5′-methyl-5-[1-(2-methylpropenyl)]-2′,2-bisthiazole-4-formamide] | 1.1 µM | >90.9 |  | 17.4 µM | 3.8 | 66.6 µM | > 100 µM |  |  | 
13 | Cc1cnc(-c2nc(C(=O)NCc3ccc(F)cc3)c(C(O)C(C)C)s2)s1 (centres unmarked) [Me-391-1, N-(p-fluorobenzyl)-5′-methyl-5-(1-hydroxy-2-methylpropyl)-2′,2-bisthiazole-4-formamide] | 2.9 µM | >11.5 |  | 3.7 µM | >9 | > 33.3 µM | > 33.3 µM |  |  | 
14 | Cc1cnc(-c2nc(C(=O)NCc3ccc(F)cc3)c(C(F)C(C)C)s2)s1 (centres unmarked) [Me-393-1, N-(p-fluorobenzyl)-5′-methyl-5-(1-fluoro-2-methylpropyl)-2′,2-bisthiazole-4-formamide] | 0.2 µM | >500 |  | 6.6 µM | >15.2 | > 100 µM | > 100 µM |  |  | 
15 | NC(=O)c1ncn([C@@H]2O[C@H](CO)[C@@H](O)[C@H]2O)n1 [Ribavirin, ribavirin, reference compound] |  |  |  | 72.4 µM | >2.8 | > 200 µM |  |  |  | 
